For one series, the system named is ILP3 and ILP4. The series can be described thus: Insulin-like peptide mRNA levels in mosquito midgut. It is filed as in vivo, Anopheles stephensi. The following applies: P. falciparum-fed mosquitoes. The protocol:
FIG. 14A-B illustrate that ABA reduces insulin-like peptide expression in the midgut. Specifically, mRNA levels are shown of ILP3 (FIG. 14A) and ILP4 (FIG. 14B) in ABA-treated, P. falciparum-fed mosquito midguts. Data are shown as fold change compared to control-treated mosquitoes. Each dot represents one replicate of 10 pooled midguts. Data were analyzed by one sample t-test. * p<0.05.

Series [1] can be described thus: Daily monitoring of water consumption, body weight and condition of mice. The note with it: infected CD1 mice. It is filed as in vivo. The protocol:
(§1) 6-8 week old female CD1 mice (Jackson) were housed four to a cage and provided with unsupplemented water or water supplemented with 2.56 mM (±)-abscisic acid (CAS Registry Number 14375-45-2) obtained from Sigma-Aldrich (Catalog No. A1049). Water and supplemented water were changed daily. On day 3 of supplementation, mice were injected intraperitoneally with 5×10^6 P. yoelii 17XNL-infected RBCs. Mouse weight, water consumption per cage, and parasitemia were monitored daily. Parasitemia was determined from thin blood films stained with Giemsa. Parasitemia was measured as the percentage of infected RBCs divided by total RBCs, while gametocytemia was measured as the proportion of gametocyte-containing RBCs of total infected RBCs. Four mice were used per group in replicated studies. Daily parasitemias and gametocytemias were analyzed by unpaired t-test.

For the next series, the system named is Anopheles stephensi. The series can be described thus: Mosquito egg production and viability. It is filed as in vivo. The note with it: single ABA-supplemented uninfected bloodmeal. The protocol: The egg laying rate and hatch rate were analyzed using Fisher's exact test. […] Each dot represents the clutch size of a single mosquito. Clutch size was analyzed by unpaired t-test.

A further series relates to P. yoelii 17XNL. Kind of series: P. yoelii 17XNL infection of CD1 mice given ABA in drinking water (parasitemia, gametocytemia). It is filed as in vivo. The protocol:
as §1, with “On day 3 of supplementation, mice were injected intraperitoneally with 5×10^6 P. yoelii 17XNL-infected RBCs.” left out

Series [2] relates to peroxisome proliferator activated receptor gamma (PPARγ). Kind of series: PPARγ transcript levels in mouse liver and spleen. It is filed as in vivo, mice. The note with it: day 7 of infection. The protocol:
(§2) For mosquito immune gene expression, 20 midguts were dissected from mosquitoes in each treatment group at 1, 2, 4, 6, 8 and 24 hours post-feeding. Midguts were sonicated and stored in Trizol at −20° C. for up to a week before RNA was extracted according to manufacturer's instructions. cDNA synthesis was carried out using QantiTect Reverse Transcription Kit (Qiagen) and 200 ng of cDNA used per reaction for qRT-PCR with Sybr Green (Applied Biosystems). Fold changes in expression levels were calculated using the comparative threshold cycle method. Data were normalized to the housekeeping gene ribosomal protein S7 and to the control treatment. Primers and cycling conditions for AsNOS, defensin, LRIM, TEP1, and APL1 were as previously described (Hauck E S, et al. Microbes Infect. 2013; 15:775-87). For gene expression analysis of mouse liver and spleen, organs were flash frozen after necropsy and stored at −80° C. before RNA was extracted in Trizol and cDNA synthesized. Real-time PCR was performed using TaqMan probe-based expression assays for mouse NOS2, PPARγ (Mm00440940), and β-actin (Applied Biosystems) with volumes and cycling conditions as previously described (Chau et al., Infect Immun, 2013, 81:3515-26). Samples were analyzed in triplicate with 250 ng of cDNA per reaction to confirm uniformity of amplification. […] All expression data were analyzed by one sample t-test.

Another series relates to defensin. Kind of series: Defensin mRNA levels in mosquito midgut. It is filed as in vivo, Anopheles stephensi. The following applies: 100 nM ABA, 4 hours post-feeding. On the procedure: as §2, with “For gene expression analysis of mouse liver and spleen, organs were flash frozen after necropsy and stored at −80° C. before RNA was extracted in Trizol and cDNA synthesized. Real-time PCR was performed using TaqMan probe-based expression assays for mouse NOS2, PPARγ (Mm00440940), and β-actin (Applied Biosystems) with volumes and cycling conditions as previously described (Chau et al., Infect Immun, 2013, 81:3515-26).” left out
Transcript levels of a panel of immune genes previously described to play a role in the mosquito immune response to malaria parasites were examined. […] Mosquitoes were provided with a P. falciparum-infected bloodmeal supplemented with 100 nM ABA or with an equivalent volume of diluent as control, then analyzed at 1-24 hours post feeding.

A further series concerns P. falciparum 3D7. Kind of series: P. falciparum gametocyte formation assay. It is filed as cell-based. The note with it: 10 nM or 100 nM ABA, 6, 8 or 10 days post culture synchronization. On the procedure: Studies of the effects of ABA on gametocyte formation were performed with P. falciparum 3D7 engineered to express GFP under the control of alpha tubulin II and Pfs25 promoters. Parasite cultures were synchronized using sorbitol. At 48 hours post-synchronization, 200 μL aliquots of parasite culture and complete RPMI medium were placed in a 96-well flat-bottomed plate and treated with 10 nM ABA, 100 nM ABA, or a diluent control. Media and treatments were refreshed every 48 hours. At 4, 6 and 8 days after the start of treatment, separate aliquots were harvested, media was removed, and replaced with 10% formalin for 1 hour at room temperature. Formalin was removed and replaced with PBS before gametocyte levels were measured by flow cytometry using a FACS Calibur flow cytometer (BD Biosciences) with a GFP filter. Four replicates were carried out, each using a separate parasite culture passage. Relative changes in gametocyte numbers were normalized to controls set at 1 and analyzed by one-sample t-test.

The next series deals with P. falciparum NF54. The series can be described thus: P. falciparum asexual growth assay. It is filed as cell-based. The following applies: 10 nM or 100 nM ABA, 48 and 96 hours, relative to untreated control. The protocol: P. falciparum NF54 cultures were synchronized and aliquots plated in complete RPMI 1640 with HEPES, hypoxanthine, and 10% heat inactivated human serum. Parasites were treated with 10 nM ABA, 100 nM ABA, or a diluent control and incubated at 37° C. for 48 or 96 hours before culture media was replaced with 10% formalin in RPMI 1640. Red blood cells were stained with 10 ug/mL propidium iodide (Sigma-Aldrich) in PBS at room temperature for 1 hour and infected cells counted with FACS Calibur flow cytometer (BD Biosciences). Four replicates were carried out, each using a separate parasite culture passage. Relative changes in growth were normalized to controls set at 1 and analyzed by one-sample t-test.

As for `CC1=CC(=O)CC(C)(C)[C@@]1(O)/C=C/C(C)=C\C(=O)O` (racemic) [ABA, (2Z,4E)-5-[(1S)-1-hydroxy-2,6,6-trimethyl-4-oxocyclohex-2-en-1-yl]-3-methylpenta-2,4-dienoic acid], the insulin-like peptide expression entry in the series with ILP3 and ILP4 is reported as “reduces”. For the same compound, the lethargy at necropsy entry in series [1] (day 7, compared to controls) is recorded as “less lethargic”. Moreover, in series [1] (over the course of infection), the daily weight change result is “not different”. Also, in the series with Anopheles stephensi, the “egg production or viability” value is “does not alter”. The parasitemia result is reported as “reduced” in the series on P. yoelii 17XNL (CD1 mice, day 4 to day 7 post-infection, relative to controls (Example 1)) and “reduced” in the series with P. yoelii 17XNL (starting on day 3 post-infection, compared to controls (Example 2)). The gametocytemia result in the series on P. yoelii 17XNL (CD1 mice, day 6 of infection (Example 1)) is on record as “reduced”; in the series with P. yoelii 17XNL (day 5 post-infection (Example 2)), “reduced”. Moreover, the “transcript levels of PPARγ” value in series [2] is “increased”. For the same compound, in the series on defensin, the “defensin mRNA levels” value was “increase”. For the same compound, the gametocyte levels result in the series with P. falciparum 3D7 was “no effect”. For the same compound, the asexual growth result with P. falciparum NF54 is “no effect”.
